What was measured:
Type in all cases: biochemical
fibrinogen = target: T1, fibrinogen (Homo sapiens, UniProt P02671+P02675+P02679); experiment: FIATA optimization: turbidity in dependence of vancomycin concentration
T1 construct: pooled patient plasma (P-Pool, n=32 single plasmas); from tissue; host or cells: pooled citrated patient plasma (P-Pool, Fbgen-Pool-Plasma)
T1 sequence (P02671 20-644 isoform P02671-2 limits assumed): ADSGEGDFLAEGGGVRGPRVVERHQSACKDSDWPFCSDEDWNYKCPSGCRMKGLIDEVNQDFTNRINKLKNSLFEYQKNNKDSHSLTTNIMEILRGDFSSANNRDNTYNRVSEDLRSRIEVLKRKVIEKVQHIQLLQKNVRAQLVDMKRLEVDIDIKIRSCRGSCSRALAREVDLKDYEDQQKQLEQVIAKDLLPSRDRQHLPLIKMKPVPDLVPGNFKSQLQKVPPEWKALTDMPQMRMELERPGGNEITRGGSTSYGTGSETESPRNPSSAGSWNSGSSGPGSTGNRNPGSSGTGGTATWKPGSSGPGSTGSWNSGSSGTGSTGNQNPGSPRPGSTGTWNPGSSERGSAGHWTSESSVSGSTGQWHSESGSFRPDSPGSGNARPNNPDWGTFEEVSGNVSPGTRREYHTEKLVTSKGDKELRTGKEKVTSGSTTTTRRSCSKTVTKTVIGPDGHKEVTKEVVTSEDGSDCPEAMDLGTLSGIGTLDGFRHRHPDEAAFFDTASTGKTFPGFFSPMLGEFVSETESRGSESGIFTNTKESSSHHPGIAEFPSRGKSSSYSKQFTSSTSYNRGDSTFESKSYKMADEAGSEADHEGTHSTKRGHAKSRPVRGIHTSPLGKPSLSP
T1 sequence (P02675 31-491): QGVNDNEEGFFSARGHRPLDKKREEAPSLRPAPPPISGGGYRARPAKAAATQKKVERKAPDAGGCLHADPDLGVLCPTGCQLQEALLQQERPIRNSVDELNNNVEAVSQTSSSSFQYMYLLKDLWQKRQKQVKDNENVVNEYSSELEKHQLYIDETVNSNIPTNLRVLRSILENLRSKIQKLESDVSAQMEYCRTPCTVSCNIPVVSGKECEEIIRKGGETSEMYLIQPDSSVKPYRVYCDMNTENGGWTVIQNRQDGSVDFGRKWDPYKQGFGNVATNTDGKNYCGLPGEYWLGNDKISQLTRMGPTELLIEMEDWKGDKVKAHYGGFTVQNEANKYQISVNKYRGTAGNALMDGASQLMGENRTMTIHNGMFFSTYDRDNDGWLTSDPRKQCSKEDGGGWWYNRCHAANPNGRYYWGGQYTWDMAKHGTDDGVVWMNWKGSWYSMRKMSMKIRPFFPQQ
T1 sequence (P02679 27-437 isoform P02679-2 limits assumed): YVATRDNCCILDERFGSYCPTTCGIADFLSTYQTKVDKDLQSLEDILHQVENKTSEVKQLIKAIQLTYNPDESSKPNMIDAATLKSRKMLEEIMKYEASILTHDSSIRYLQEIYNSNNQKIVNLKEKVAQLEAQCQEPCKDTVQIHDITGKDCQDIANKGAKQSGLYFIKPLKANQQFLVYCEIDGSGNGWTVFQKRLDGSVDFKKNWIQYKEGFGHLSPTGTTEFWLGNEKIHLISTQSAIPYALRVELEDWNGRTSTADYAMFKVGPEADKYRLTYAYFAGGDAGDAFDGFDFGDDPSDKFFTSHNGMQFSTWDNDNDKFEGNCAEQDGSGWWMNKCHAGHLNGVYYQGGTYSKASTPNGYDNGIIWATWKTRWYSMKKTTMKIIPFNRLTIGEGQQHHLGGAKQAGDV
Method: 50 μl P-Pool or 1:2 or 1:4 diluted (in 6% BSA-PBS) P-Pool were incubated with 50 μl 0-6.8 mM vancomycin in PBS. The turbidity increase at 405 nm was determined after 1 min (RT). 25 μl Fbgen-Pool (300% of norm; 8.4 g/l) were incubated with 125 μl 0.55 mM, 1.1 mM, or 2.2 mM vancomycin in PBS for 1 min (RT). Then the turbidity increase at 405 nm was determined.

[1] = test system: β2 fraction (fibrinogen) of plasma; experiment: Electrophoresis of plasma that had been incubated with vancomycin
Method: 950 μl P-Pool were incubated with 50 μl 0-200 mM (0-10 mM final conc.) vancomycin for 5 min (RT). Then electrophoreses of the samples and of the solubilized precipitate of 2.10. were performed and the total protein concentrations in the treated samples were determined.

t-PA = experiment: Stimulation of t-PA by vancomycin-precipitated plasma, plasma system
Method: 25 μl P-Pool were incubated with 25 μl 0-50 mM vancomycin in PBS and 50 μl 1000 IU/ml t-PA in PBS, 0.1% Triton X 100® and 25 μl 0 mM or 15 mM chloramine-T® for 30 min (RT). Then 25 μl 2.7 mM Vai-Leu-Lys-pNA, 1.7 M KCl were added and the resulting plasmin activity was determined by measuring linear absorbance increase/min RT in a microtiterplate reader.

In the case of `CN[C@H](CC(C)C)C(=O)N[C@H]1C(=O)N[C@@H](CC(N)=O)C(=O)N[C@H]2C(=O)N[C@H]3C(=O)N[C@H](C(=O)N[C@H](C(=O)O)c4cc(O)cc(O)c4-c4cc3ccc4O)[C@H](O)c3ccc(c(Cl)c3)Oc3cc2cc(c3O[C@@H]2O[C@H](CO)[C@@H](O)[C@H](O)[C@H]2O[C@H]2C[C@](C)(N)[C@H](O)[C@H](C)O2)Oc2ccc(cc2Cl)[C@H]1O` [vancomycin], the “fibrinogen concentration at saturation of turbidity increase” value (fibrinogen; 68.8 μmoles of vancomycin given to 25 μl 300% Fbgen-Pool) is reported as “about 4 g/l”, the “own turbidity at 405 nm” value (fibrinogen; 4.4 mM vancomycin in PBS, 0% fibrinogen standard in BSA) is reported as < 50 mA and the “fibrinogen concentration at saturation of turbidity increase” value (fibrinogen; 137.5-275 μmoles of vancomycin) is reported as 6 to 8 g/L. For the same compound, the “stability of the turbidity increase” value (fibrinogen; vancomycin in plasma, RT) was “at least 10 min”, the β2 fraction ([1]; 0.29 mM vancomycin) was 10.6% and the β2 fraction ([1]; 0.44 mM vancomycin) was 10.4%. The β2 fraction ([1]; 0.66 mM vancomycin) was 8.0%, the β2 fraction ([1]; 0.99 mM vancomycin) was 6.4% and the β2 fraction ([1]; 1.48 mM vancomycin) was 5.2%. For the same compound, the β2 fraction ([1]; 2.22 mM vancomycin) was 5.5%, the β2 fraction ([1]; 5 mM vancomycin) was 0% and the β2 fraction ([1]; 10 mM vancomycin) was 0%. The “stimulation of t-PA” value (t-PA; 1 part plasma with 1 part 1.5-5 mM vancomycin, oxidation with 1 part 15 mM chloramine-T) was “up to 20 fold” and the “increase of t-PA activity” value (t-PA; without oxidation, 2 mM vancomycin, final incubation 158 min (RT)) was 2.5 fold.

— patent publication US7741124B2, “Detection procedures for fibrinogen and/or fibrinogen derivatives” (priority 2003, dated 2010)
